Measured values taken from patent US8110703B2, “Retinoid derivative and pharmaceutical composition and use thereof” (Anhui Medical University, priority 2008, dated 2012).

How the values were obtained:
[1] = system: A549 cells; test: Cell cycle and apoptosis by flow cytometry, A549; assay type: cell-based; settings: A549, 10 μg/ml, 3 days
Experimental: 1.4 Detection of Cell Cycle and Apoptosis by Flow Cytometry A549 cells in the logarithmic phase are collected, regulated with the concentrations thereof to 8×10^7/L, inoculated in a 6-hole board, cultured in an incubator (37° C. and 5% CO2). After the cells are adhered, the culture solution is discarded, and a culture solution having drugs with the corresponding concentrations is added and divided into 10 μg/ml drug groups, 10 μg/ml fenretinide groups, cell control groups, solvent control groups (1‰ DMSO and anhydrous ethanol) (11 in total). After 3 days, each group of cells is normally digested, collected, blown into single cell suspension, washed by cold PBS twice, and re-suspend by 10 μl PBS. Fixing and member breaking agents and a PI staining solution are added according to the Coulter DNA detection kit and reacted with one another at the room temperature and out of light for 30 min for machine detection. Each sample detects 10000 cells and repeats for three times, and the data are analyzed by Analysis software for the ratio during the G0-G1, S and G2-M periods and the ratio of apoptotic cells.

[2] = patient, dosage 200 mg/day; cited from earlier work
[3] = system: apoptosis; settings: cited from earlier work

| SMILES | effect on the apoptosis of A549 cells (ranking in words) [1] | Apoptosis Rate (%) ([1]; PI flow cytometry) | G0-G1 (%) ([1]; PI flow cytometry) | G2-M (%) ([1]; PI flow cytometry) | S % ([1]; PI flow cytometry) [%] | Apoptosis Rate (%) ([1]; in DMSO) | G0-G1 (%) ([1]; in DMSO) | G2-M (%) ([1]; in DMSO) | S % ([1]; in DMSO) [%] | Apoptosis Rate (%) ([1]; in ethanol) | G0-G1 (%) ([1]; in ethanol) | G2-M (%) ([1]; in ethanol) | S % ([1]; in ethanol) [%] | plasma concentration [2] | effective concentration required to generate apoptosis in vivo [3] [µM] |
| --- | --- | --- | --- | --- | --- | --- | --- | --- | --- | --- | --- | --- | --- | --- | --- |
| CC1=C(/C=C/C(C)=C/C=C/C(C)=C/C(=O)Nc2cccc(C(F)(F)F)c2)C(C)(C)CCC1 [Example 3a-02, (3-trifluoromethylphenyl)-(all-trans)-3,7-dimethyl-9-(2,6,6-trimethyl-1-cyclohexen-1-yl)-2,4,6,8-nonatetraenoic acid amide] | most greatly effects on the apoptosis of A549 cells | 40.9 | 35.1 | 1.62 | 23.6 | – | – | – | – | – | – | – | – | – | – |
| CC1=C(/C=C/C(C)=C/C=C/C(C)=C/C(=O)Oc2ccccc2C(F)(F)F)C(C)(C)CCC1 [Example 2a-03, (2-trifluoromethylphenyl)-(all-trans)-3,7-dimethyl-9-(2,6,6-trimethyl-1-cyclohexen-1-yl)-2,4,6,8-nonatetraenoate] | – | 28.9 | 45.7 | 1.01 | 25.8 | – | – | – | – | – | – | – | – | – | – |
| CC1=C(/C=C/C(C)=C/C=C/C(C)=C/C(=O)Nc2ccc(O)cc2)C(C)(C)CCC1 [Fenretinide, reference compound] | – | – | – | – | – | 29.3 | 47.2 | 2.09 | 22.2 | 14.0 | 59.3 | 2.63 | 24.5 | lower than 1 μM | 101 |
| CC1=C(/C=C/C(C)=C/C=C/C(C)=C/C(=O)Oc2ccc(N)cc2C(F)(F)F)C(C)(C)CCC1 [Example 4a-02, (4-amino-2-trifluoromethylphenyl)-(all-trans)-3,7-dimethyl-9-(2,6,6-trimethyl-1-cyclohexen-1-yl)-2,4,6,8-nonatetraenoate] | – | 23.9 | 44.1 | 1.90 | 29.4 | – | – | – | – | – | – | – | – | – | – |
| CC1=C(/C=C/C(C)=C/C=C/C(C)=C/C(=O)Nc2cccc(OC(F)(F)F)c2)C(C)(C)CCC1 [Example 6a-02, (3-trifluoromethoxyphenyl)-(all-trans)-3,7-dimethyl-9-(2,6,6-trimethyl-1-cyclohexen-1-yl)-2,4,6,8-nonatetraenoic acid amide] | – | 9.79 | 70.0 | 1.71 | 19.0 | – | – | – | – | – | – | – | – | – | – |
